The values that follow come from patent publication US20140107109A1, “AMINO-DIHYDROTHIAZINE AND AMINO-DIOXIDO DIHYDROTHIAZINE COMPOUNDS AS BETA-SECRETASE ANTAGONISTS AND METHODS OF USE” (Amgen Inc., priority 2012, published 2014).

Read-outs that look alike come from different tables or passages of the source.

Assay [1] relates to Aβ40 in conditioned medium of cells stably expressing Amyloid Precursor Protein (APP). The assay is described as follows: In vitro BACE cell-based assay (HEK cell assay), Aβ40 sandwich ELISA. The following applies: Homo sapiens, HEK293. The procedure:
In Vitro BACE Cell-Based Assay
The cell-based assay measures inhibition or reduction of Aβ40 in conditioned medium of test compound treated cells expressing amyloid precursor protein.
Cells stably expressing Amyloid Precursor Protein (APP) were plated at a density of 40K cells/well in 96 well plates (Costar). The cells were cultivated for 24 hours at 37C. and 5% CO2 in DMEM supplemented with 10% FBS. The test compounds were then added to cells in 10-point dose response concentrations with the starting concentration being either 100 μM or 10 μM. The compounds were diluted from stock solutions in DMSO and the final DMSO concentration of the test compounds on cells was 0.1%. After 24 h of incubation with the test compounds the supernatant conditioned media was collected and the Aβ 40 levels were determined using a sandwich ELISA. The IC50 of the compound was calculated from the percent of control or percent inhibition of Aβ 40 as a function of the concentration of the test compound.
The sandwich ELISA to detect Aβ 40 was performed in 96 well microtiter plates, which were pre-treated with goat anti-rabbit IgG (Pierce). The capture and detecting antibody pair that were used to detect Aβ 40 from cell supernatants were affinity purified pAb40 (Biosource) and biotinylated 6E10 (Signet Labs Inc.), respectively. The optimal concentration for the pAb40 antibody was 3 μg/ml in Superblock/TBS (Pierce) that was supplemented with 0.05% Tween 20 (Sigma). Optimal concentration for the detection antibody 6E10-biotinylated was 0.5 μg/ml in Superblock/TBS (Pierce) that had been supplemented with 2% normal goat serum and 2% normal mouse serum.
Cellular supernatants were incubated with the capture antibody for 3 h at 4° C., followed by 3 wash steps in TBS-tween (0.05%). The detecting antibody incubation was for 2 h at 4° C., again followed by the wash steps as described previously. The final readout of the ELISA is Time-Resolved Fluorescence (counts per minute) using Delfia reagents Streptavidin-Europium and Enhancement solutions (Perkin Elmer) and the Victor 2 multilabel counter (Perkin Elmer).

A further assay deals with T1, Cathepsin D (Cat D) (Homo sapiens, UniProt P07339).
T1 construct: Recombinant Cat D was expressed in CHO cells; made in house; host or cells: CHO cells
The assay is described as follows: In vitro enzymatic Cathepsin D (Cat D) FRET assay. It counts as biochemical. The following applies: read-out: CatD IC50. The procedure: In Vitro Enzymatic Cathepsin D (Cat D) FRET (Fluorescence Resonance Energy Transfer) Assay Recombinant Cat D was expressed in CHO cells. […] The Cat D enzyme (9 nM) is pre-incubated for one hour with inhibitors, typically in about 1 uL of DMSO according to a serial dilution, is added thereto. […] The FRET assay is terminated with by addition of Tris buffer, which raises the pH to neutrality, and the fluorescence is determined. The FRET substrate is a peptide with commercially available fluorophore and quencher, on opposite sides of the BACE cleavage site. The Cat D substrate peptide sequence is based on sequence #1 of Table 1 from Gulnik et al. […] Alternatively, a Cat D assay may also be run according to the procedure described in the article, Characterization of new fluorgenic substrates for the rapid and sensitive assay of cathepsin E and cathepsin D, J. Biochem., 125:1137, 1999. In addition, the cathepsin D and cathepsin E assays are described in PCT publication WO2011069934. This WIPO publication describes BACE inhibitor compounds having an amide linker connecting two aromatic groups with extremely poor cathepsin D and/or cathepsin E inhibitory activity (see Table 2). Where available, the in-vitro Cat D FRET assay data for each of the Examples, conducted by the first procedure, is provided.

Assay [2] concerns the target Beta Secretase enzyme (BACE1) (Homo sapiens, UniProt P56817). The assay can be described thus: In vitro enzymatic BACE FRET assay. It counts as biochemical. Particulars: read-out: BACE1 FRET assay IC50. The procedure:
In Vitro Enzymatic BACE FRET (Fluorescence Resonance Energy Transfer) Assay (Enzyme Assay Data in the Example Tables I and II)
The assay buffer used in this screen is 0.05 M acetate, pH 4.2, 10% DMSO final, 100 uM genapol (which is a nonionic detergent, below its Critical Micelle Concentration). […] This assay is effectively started by the addition of FRET substrate (50 nM) and the combination is incubated for one hour. The FRET assay is terminated with by addition of Tris buffer, which raises the pH to neutrality, and the fluorescence is determined. The FRET substrate is a peptide with commercially available fluorophore and quencher, on opposite sides of the BACE cleavage site. Proteolytic cleavage of the FRET substrate releases quenching of fluorescence (excitation […] and […]).

T1 sequence (P07339 65-412, species assumed): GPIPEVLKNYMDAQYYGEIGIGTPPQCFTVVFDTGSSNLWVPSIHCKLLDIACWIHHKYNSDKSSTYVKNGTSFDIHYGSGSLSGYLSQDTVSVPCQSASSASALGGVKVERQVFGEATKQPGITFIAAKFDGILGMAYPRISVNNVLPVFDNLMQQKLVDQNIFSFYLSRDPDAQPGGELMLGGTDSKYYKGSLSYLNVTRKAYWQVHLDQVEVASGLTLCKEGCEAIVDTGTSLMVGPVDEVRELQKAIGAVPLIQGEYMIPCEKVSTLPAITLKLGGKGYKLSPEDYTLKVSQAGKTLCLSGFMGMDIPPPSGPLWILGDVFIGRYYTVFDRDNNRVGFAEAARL
Sequence of Beta Secretase enzyme (BACE1) (P56817 46-501): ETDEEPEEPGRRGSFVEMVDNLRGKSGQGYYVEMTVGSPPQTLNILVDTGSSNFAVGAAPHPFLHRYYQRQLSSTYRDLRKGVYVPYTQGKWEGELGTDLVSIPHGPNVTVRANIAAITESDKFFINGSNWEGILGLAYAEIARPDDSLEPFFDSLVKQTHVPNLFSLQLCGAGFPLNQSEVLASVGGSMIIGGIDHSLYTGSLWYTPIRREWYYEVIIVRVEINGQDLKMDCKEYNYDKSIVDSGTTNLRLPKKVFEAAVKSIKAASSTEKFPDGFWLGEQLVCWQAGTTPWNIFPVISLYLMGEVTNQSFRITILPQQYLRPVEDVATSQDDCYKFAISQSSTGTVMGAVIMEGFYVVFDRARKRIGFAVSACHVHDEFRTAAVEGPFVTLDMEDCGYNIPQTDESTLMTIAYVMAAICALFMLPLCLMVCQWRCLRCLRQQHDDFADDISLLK

Turning to `COc1cnc(C(=O)Nc2ccc(F)c(C3(C(F)(F)F)CS(=O)(=O)C(C)(C)C(N)=N3)c2)cn1` (stereo in doubt) [Example 34, N-(3-((3R)-5-amino-6,6-dimethyl-1,1-dioxido-3-(trifluoromethyl)-3,6-dihydro-2H-1,4-thiazin-3-yl)-4-fluorophenyl)-5-methoxy-2-pyrazinecarboxamide], the IC50 – broadly, the concentration needed to halve the response being measured – in assay [1] (Aβ40, 24 h incubation) is over 10 µM.
Consider `COc1cnc(C(=O)Nc2ccc(F)c([C@]3(C)CS(=O)(=O)C(C)(C)C(N)=N3)c2)cn1` [Example 17, N-(3-((3R)-5-amino-3,6,6-trimethyl-1,1-dioxido-3,6-dihydro-2H-1,4-thiazin-3-yl)-4-fluorophenyl)-5-methoxy-2-pyrazinecarboxamide], for which the IC50 is 0.0022 µM in assay [1] (Aβ40, 24 h incubation) and over 400 µM on Cathepsin D (Cat D).
For the compound `CC1(C)C(N)=N[C@](C)(c2cc(NC(=O)c3ccc(Cl)cn3)ccc2F)CS1(=O)=O` [Example 19, N-(3-((3R)-5-amino-3,6,6-trimethyl-1,1-dioxido-3,6-dihydro-2H-1,4-thiazin-3-yl)-4-fluorophenyl)-5-chloro-2-pyridinecarboxamide], the IC50 in assay [1] (Aβ40, 24 h incubation) was 0.0014 µM; at Cathepsin D (Cat D), 240 µM.
On to `COc1cnc(C(=O)Nc2ccc(F)c([C@]3(C)CSCC(N)=N3)c2)cn1` [Example 43, (R)—N-(3-(5-amino-3-methyl-3,6-dihydro-2H-1,4-thiazin-3-yl)-4-fluorophenyl)-5-methoxypyrazine-2-carboxamide], for which the midpoint of inhibition in assay [1] (Aβ40, 24 h incubation), the IC50, lay at 0.007 µM.
As to `COc1cnc2c(Nc3cnc(F)c([C@]4(C)CS(=O)(=O)C(C)(C)C(N)=N4)c3)nccc2c1` [Example 66, N-(5-((3R)-5-amino-3,6,6-trimethyl-1,1-dioxido-3,6-dihydro-2H-1,4-thiazin-3-yl)-6-fluoro-3-pyridinyl)-3-methoxy-1,7-naphthyridin-8-amine], half-maximal inhibition in assay [1] (Aβ40, 24 h incubation) (IC50) required 0.0067 µM.
Take `COc1cc(C)ccc1Oc1ccc(F)c([C@]2(C)CS(=O)(=O)C(C)(C)C(N)=N2)c1` [Example 97, (R)-5-amino-3-(2-fluoro-5-(2-methoxy-4-methylphenoxy)phenyl)-3,6,6-trimethyl-3,6-dihydro-2H-1,4-thiazine 1,1-dioxide]: the IC50 in assay [1] (Aβ40, 24 h incubation) is 6.86 µM; on Cathepsin D (Cat D), 182 µM.
On to `CC1(C)C(N)=N[C@](C)(c2cc(NC(=O)c3nn(C(F)F)cc3Cl)ccc2F)CS1(=O)=O` [Example 106, (R)—N-(3-(5-amino-3,6,6-trimethyl-1,1-dioxido-3,6-dihydro-2H-1,4-thiazin-3-yl)-4-fluorophenyl)-4-chloro-1-(difluoromethyl)-1H-pyrazole-3-carboxamide], for which the figures for the concentration for half-maximal inhibition (IC50) (in assay [2]; on Cathepsin D (Cat D)) were 0.00174 µM and 112 µM, respectively.
Regarding `CC1(C)C(N)=N[C@](C)(c2cc(NCc3nn(C(F)F)cc3Cl)ccc2F)CS1(=O)=O` [Example 107, (R)-5-amino-3-(5-(((4-chloro-1-(difluoromethyl)-1H-pyrazol-3-yl)methyl)amino)-2-fluorophenyl)-3,6,6-trimethyl-3,6-dihydro-2H-1,4-thiazine 1,1-dioxide], the IC50 came out at 0.00227 µM in assay [2] (average IC50, enzyme assay) and 81.1 µM on Cathepsin D (Cat D).
Consider `C[C@@]1(c2cc(Br)ccc2F)CS(=O)(=O)C2(CC(O)C2)C(N)=N1` (stereo partly drawn) [Example 112, (R)-9-amino-7-(5-bromo-2-fluorophenyl)-2-hydroxy-7-methyl-5-thia-8-azaspiro[3.5]non-8-ene 5,5-dioxide], for which the IC50 in assay [2] (average IC50, enzyme assay) worked out at 1.19 µM; at Cathepsin D (Cat D), 37.3 µM.
`C[C@@]1(c2cc(Br)ccc2F)CS(=O)(=O)C2(CCC2)C(N)=N1` [Example 113, (R)-9-amino-7-(5-bromo-2-fluorophenyl)-7-methyl-5-thia-8-azaspiro[3.5]non-8-ene 5,5-dioxide]: the IC50 in assay [2] (average IC50, enzyme assay) turned out to be 4.05 µM; on Cathepsin D (Cat D) it was 30 µM.
For `CC1(C)C(N)=N[C@@]2(c3cc(Nc4nccc5cc(Cl)cnc45)ccc3F)C[C@H]2S1(=O)=O` [Example 183, (1R,6R)-4-amino-6-(5-((3-chloro-1,7-naphthyridin-8-yl)amino)-2-fluorophenyl)-3,3-dimethyl-2-thia-5-azabicyclo[4.1.0]hept-4-ene 2,2-dioxide], the IC50 is 4.74 µM in assay [1] (average IC50, cell assay) and 87.9 µM at Cathepsin D (Cat D).
`CC1(C)C(N)=NC2(c3cc(Br)ccc3F)COCC2S1(=O)=O` (centres unmarked) [Example 185, 3-amino-4a-(5-bromo-2-fluorophenyl)-2,2-dimethyl-4a,5,7,7a-tetrahydro-2H-furo[3,4-b][1,4]thiazine 1,1-dioxide] had a half-maximal inhibitory concentration (IC50) in assay [1] (average IC50, cell assay) of over 15.6 µM.
As for `CC1(C)C(N)=N[C@@]2(c3cc(Br)ccc3F)COC[C@H]2S1(=O)=O` [Example 185a, (4aS,7aS)-3-amino-4a-(5-bromo-2-fluorophenyl)-2,2-dimethyl-4a,5,7,7a-tetrahydro-2H-furo[3,4-b][1,4]thiazine 1,1-dioxide], in assay [1] (average IC50, cell assay), the IC50 is over 15.6 µM.
The same measure, in the same setting: as for `CC1(C)C(N)=N[C@]2(c3cc(Br)ccc3F)COC[C@@H]2S1(=O)=O` [Example 185b, (4aR,7aR)-3-amino-4a-(5-bromo-2-fluorophenyl)-2,2-dimethyl-4a,5,7,7a-tetrahydro-2H-furo[3,4-b][1,4]thiazine 1,1-dioxide], the figure is over 15.6 µM.
In the case of `CC1(C)C(N)=N[C@@]2(c3cc(N)ccc3F)COC[C@H]2S1(=O)=O` [Example 185c, (4aS,7aS)-3-amino-4a-(5-amino-2-fluorophenyl)-2,2-dimethyl-4a,5,7,7a-tetrahydro-2H-furo[3,4-b][1,4]thiazine 1,1-dioxide], the half-maximal inhibitory concentration (IC50) in assay [1] (average IC50, HEK cells) is over 15.6 µM.
`CC1(C)C(N)=N[C@]2(c3cc(N)ccc3F)COC[C@@H]2S1(=O)=O` [Example 185d, (4aR,7aR)-3-amino-4a-(5-amino-2-fluorophenyl)-2,2-dimethyl-4a,5,7,7a-tetrahydro-2H-furo[3,4-b][1,4]thiazine 1,1-dioxide] gave an IC50 in assay [1] (average IC50, HEK cells) of over 15.6 µM.
As for `CC1(C)C(N)=N[C@](C)(c2cc(Nc3nccc4nc(C(F)(F)F)cnc34)ccc2F)C(F)S1(=O)=O` (stereo partly drawn) [Example 227, N-(3-((3R)-5-amino-2-fluoro-3,6,6-trimethyl-1,1-dioxido-3,6-dihydro-2H-1,4-thiazin-3-yl)-4-fluorophenyl)-2-(trifluoromethyl)pyrido[3,4-b]pyrazin-5-amine], the concentration for half-maximal inhibition (IC50) is 0.00659 µM in assay [2] (average IC50, enzyme assay) and over 44.4 µM on Cathepsin D (Cat D).
Regarding `CC1(C)C(N)=N[C@](C)(c2cc(OCc3ccccc3)ccc2F)CS1(=O)=O` [Example 301, (5R)-5-(5-(benzyloxy)-2-fluorophenyl)-2,2,5-trimethyl-5,6-dihydro-2H-1,4-thiazin-3-amine 1,1-dioxide], the IC50 turned out to be 1.06 µM in assay [1] (average IC50, HEK cell assay) and 184 µM at Cathepsin D (Cat D).
On to `CC1(C)C(N)=N[C@](CF)(c2cc(Nc3nncc4cc(Cl)ccc34)ccc2F)CS1(=O)=O` [Example 450, N-(3-((3S)-5-amino-3-(fluoromethyl)-6,6-dimethyl-1,1-dioxido-3,6-dihydro-2H-1,4-thiazin-3-yl)-4-fluorophenyl)-6-chloro-1-phthalazinamine], for which it took 0.7 µM to reach half-maximal inhibition in assay [1] (average IC50, cell assay) (IC50).
